Data set [1] has as its system fibroblasts cultured on matrix with aligned collagen fibrils (30° condition). Description: αSMA gene expression (RT-qPCR) of fibroblasts on aligned collagen matrix treated with inhibitors. The format is cell-based, human. The conditions noted are these: 3 days; 1 μM verteporfin, 10 μM blebbistatin, 20 μM Y-27632, 2 μM SB-431542; 30° aligned matrix; normalized to fibroblasts. As for the experimental part: Quantitative gene expression analysis: Gene expression analysis for fibroblast differentiation was performed using an established protocol. Briefly, TRIzol (Thermo Fisher Scientific, Dreieich, Germany) was used to extract total RNA. The obtained RNA was converted into complementary DNA (cDNA) using a high-capacity cDNA reverse transcription kit (Applied Biosystems, Waltham, USA). The concentration and the ratio of absorbance at 260 nm and 280 nm of cDNA were quantified using a Nanodrop (Thermo Fisher Scientific, Dreieich, Germany) prior to performing gene expression analysis. Ribosomal protein S26 (RPS26) was used as a reference gene. […] The primer sequences are listed in Table 1. qPCR was performed using SYBR Green PCR Master Mix (Applied Biosystems, Waltham, USA). The qPCR procedure was set as follows: denaturation for 5 min at 95° C.; 45 cycles of denaturation (95° C., 15 s), annealing under primer-specific conditions (30 s) and target gene-specific extension (30 s at 72° C.). The fluorescence signal was measured for 20 s at 72° C. To confirm the specificity of the PCR products, melting curve analysis was performed at the end of each run. Experiments were performed in 4 replicates. Treatment with inhibitors: Fibroblasts cultured onto matrix reconstituted on inclined surfaces with an angle of 30° were treated with 1 μM verteporfin (YAP inhibitor; Sigma-Aldrich, Darmstadt, Germany), 10 μM blebbistatin (myosin inhibitor; Tocris, Bristol, United Kingdom), 20 μM Y-27632 (Rho-associated kinase (ROCK) inhibitor; Tocris, Bristol, United Kingdom) and 2 μM SB-431542 (TGF-31 receptor kinase inhibitor; Sigma-Aldrich, Darmstadt, Germany) for 3 days. After 3 days of treatment, RNA was extracted for the study of αSMA expression using qPCR, as stated in the quantitative gene analysis section. Experiments were performed in 6 replicates.

For data set [2] the test system is unchanged. Description: Live/dead assay (DRAQ7, flow cytometry) of inhibitor-treated fibroblasts on aligned matrix. The conditions noted are these: 3 days; 1 μM verteporfin, 10 μM blebbistatin, 20 μM Y-27632, 2 μM SB-431542; 30° aligned matrix. Type of data set: cell-based. The protocol:
Treatment with inhibitors: Fibroblasts cultured onto matrix reconstituted on inclined surfaces with an angle of 30° were treated with 1 μM verteporfin (YAP inhibitor; Sigma-Aldrich, Darmstadt, Germany), 10 μM blebbistatin (myosin inhibitor; Tocris, Bristol, United Kingdom), 20 μM Y-27632 (Rho-associated kinase (ROCK) inhibitor; Tocris, Bristol, United Kingdom) and 2 μM SB-431542 (TGF-31 receptor kinase inhibitor; Sigma-Aldrich, Darmstadt, Germany) for 3 days. After 3 days of treatment, RNA was extracted for the study of αSMA expression using qPCR, as stated in the quantitative gene analysis section. Experiments were performed in 6 replicates.
Quantitative analysis of cell number and dead cells: Collagen matrices were digested using 2 mg/mL type IV collagenase (Thermo Fisher Scientific, Dreieich, Germany) for 15 min under standard cell culture conditions. Afterwards, cells were stained with DRAQ7 (dead cell staining dye; Biolegend, San Diego, USA) for 10 min on ice. Cells were analyzed using an Attune NxT Flow Cytometer equipped with an autosampler (Thermo Fisher Scientific, Dreieich, Germany). […] The percentage of dead cells was quantified by counting the number of cells that were positive for DRAQ7. At least 20,000 cells were analyzed per condition and replicate. […]
For orientation: In flow cytometry, cells or beads pass a laser one at a time.

The structures appear in SMILES notation.

As for `NC(=O)c1ccc(-c2nc(-c3ccc4c(c3)OCO4)c(-c3ccccn3)[nH]2)cc1` [SB-431542], the αSMA gene expression result in data set [1] was “significantly reduced”.
Still for that read-out and setting: as for `C[C@@H](N)[C@H]1CC[C@H](C(=O)Nc2ccncc2)CC1` [Y-27632], the entry is “significantly reduced”.
Take `Cc1ccc2c(c1)C(=O)C1(O)CCN(c3ccccc3)C1=N2` (stereo not shown) [blebbistatin]: in data set [2], the “cell death (percentage of dead cells)” value was “without harming cells”. In addition, in data set [1], the αSMA gene expression result is listed as “significantly reduced”.
